Reference: publication PMC4403932 (Journal of Medicinal Chemistry, 2015)
Where “and” joins values, the source holds several entries; their conditions need not be identical. Identical values can stand only once. Entries after “also recorded” stand apart in the source; their conditions may differ. Like-named read-outs stand apart in the source and are kept apart here.

Assays:
[1] = biological target: T1, BRD4(1) (Homo sapiens, UniProt O60885); experiment: Isothermal titration calorimetry, BRD4(1); type: binding; details: for Kd / TΔS / ΔG / N (stoichiometry) / ΔHobs: ITC; for LE (ligand efficiency): LE = ΔG/N, N number of non-hydrogen atoms
T1 construct: made in house
Procedure: (§1) Experiments were carried out on an ITC200 titration microcalorimeter from MicroCal, LLC (GE Healthcare) equipped with a Washing module, with a cell volume of 0.2003 mL, and a 40 μL microsyringe. Experiments were carried out at 15 °C while stirring at 1000 rpm, in ITC buffer (50 mM HEPES, pH 7.5 (at 25 °C), 150 mM NaCl). The microsyringe was loaded with a solution of the protein sample (300−740 μM protein for BRD9 and BRD4(1), respectively, in ITC buffer) and was carefully inserted into the calorimetric cell which was filled with an amount of the ligand (0.2 mL, 20–25 μM in ITC buffer). The system was first allowed to equilibrate until the cell temperature reached 15 °C, and an additional delay of 60 s was applied. All titrations were conducted using an initial control injection of 0.3 μL followed by 38 identical injections of 1 μL with a duration of 2 s (per injection) and a spacing of 120 s between injections. The titration experiments were designed in such a fashion as to ensure complete saturation of the proteins before the final injection. The heat of dilution for the proteins was independent of their concentration and corresponded to the heat observed from the last injection, following saturation of ligand binding, thus facilitating the estimation of the baseline of each titration from the last injection. The collected data were corrected for protein heats of dilution (measured on separate experiments by titrating the proteins into ITC buffer) and deconvoluted using the MicroCal Origin software supplied with the instrument to yield enthalpies of binding (ΔH) and binding constants (KB) in the same fashion as that previously described in detail by Wiseman and co-workers.[66] Thermodynamic parameters were calculated using the basic equation of thermodynamics (ΔG = ΔH – TΔS = −RT ln KB, where ΔG, ΔH, and ΔS are the changes in free energy, enthalpy, and entropy of binding, respectively). In all cases a single binding site model was employed, supplied with the MicroCal Origin software package.

[2] = biological target: T2, BRD2(1) (Homo sapiens, UniProt P25440); experiment: Isothermal titration calorimetry, BRD2(1); type: binding; details: for Kd / TΔS / ΔG / N (stoichiometry) / ΔHobs: ITC, 15 °C; for Kd: 50 mM HEPES pH 7.5, 150 mM NaCl, triplicate; for Kd / N (stoichiometry) / ΔHobs: reverse titration; for LE (ligand efficiency): LE = ΔG/N, N number of non-hydrogen atoms
T2 construct: Fragments were tested in a thermal shift assay against bromodomains of the BET subfamily; made in house
Procedure: as §1

[3] = biological target: T3, BRD3(1) (Homo sapiens, UniProt Q15059); experiment: Isothermal titration calorimetry, BRD3(1); type: binding; details: for LE (ligand efficiency): LE = ΔG/N, N number of non-hydrogen atoms
T3 construct: Fragments were tested in a thermal shift assay against bromodomains of the BET subfamily; made in house
Procedure: as §1

[4] = biological target: T2, BRD2(1); experiment: Protein stability (thermal) shift assay, BRD2(1); type: binding; details: compound 10 μM, protein 2 μM; average of triplicate
[5] = biological target: T4, CREBBP (Homo sapiens, UniProt Q92793); experiment: Protein stability (thermal) shift assay, CREBBP; type: binding; details: compound 10 μM, protein 2 μM; average of triplicate; read-out: ΔTm Shift, CREBBP
T4 construct: small thermal shits (1.0–1.3 °C) for the bromodomain of CREBBP; made in house

[6] = biological target: T5, BRD2(2) (Homo sapiens, UniProt P25440); experiment: Protein stability (thermal) shift assay, BRD2(2); type: binding; details: compound 10 μM, protein 2 μM; average of triplicate
T5 construct: made in house

[7] = biological target: T3, BRD3(1); experiment: Protein stability (thermal) shift assay, BRD3(1); type: binding; details: compound 10 μM, protein 2 μM; average of triplicate
[8] = biological target: T6, BRD3(2) (Homo sapiens, UniProt Q15059); experiment: Protein stability (thermal) shift assay, BRD3(2); type: binding; details: compound 10 μM, protein 2 μM; average of triplicate
T6 construct: made in house

[9] = biological target: T7, BRD4(2) (Homo sapiens, UniProt O60885); experiment: Protein stability (thermal) shift assay, BRD4(2); type: binding; details: compound 10 μM, protein 2 μM; average of triplicate
T7 construct: made in house

[10] = biological target: T8, BRDT(1) (Homo sapiens, UniProt Q58F21); experiment: Protein stability (thermal) shift assay, BRDT(1); type: binding; details: compound 10 μM, protein 2 μM; average of triplicate
T8 construct: made in house

[11] = biological target: T9, BAZ2B (Homo sapiens, UniProt Q9UIF8); experiment: Protein stability (thermal) shift assay, BAZ2B; type: binding; details: compound 10 μM, protein 2 μM; average of triplicate; read-out: ΔTm Shift, BAZ2BA
T9 construct: representative BRDs from other structural subfamilies (family I, PCAF); family III, CREBBP; family IV, BRD9; family V, BAZ2B; made in house
T9 sequence (Q9UIF8 2060-2164 limits assumed): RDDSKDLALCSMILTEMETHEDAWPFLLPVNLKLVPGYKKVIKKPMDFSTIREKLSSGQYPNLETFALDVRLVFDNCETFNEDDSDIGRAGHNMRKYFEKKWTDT

[12] = tested on: HEK293 cells; experiment: In vitro cytotoxicity (CellTiter-Glo); type: cell-based, human; details: cell viability, 0.005-33 μM
Procedure: Following NanoBRET substrate addition and NanoBRET measurements, to the same wells an equal volume of CellTiter-Glo reagent (Promega) was added and the plates were incubated for 30 min at room temperature. Total luminescence was measured, and relative compound toxicity was determined by comparing the RLUs (relative light units) of a sample containing DMSO vehicle (in the absence of compound 11) to the RLUs of the samples containing 0.005–33 μM compound 11.

[13] = 50 mM HEPES pH 7.5, 150 mM NaCl, 15 °C, reverse titration, triplicate, read-out: KD
[14] = read-out: dissociation constant

T2 sequence (P25440 74-180 limits assumed): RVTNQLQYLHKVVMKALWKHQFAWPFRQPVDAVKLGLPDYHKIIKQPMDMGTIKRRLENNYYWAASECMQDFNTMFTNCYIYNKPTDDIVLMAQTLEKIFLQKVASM
T3 sequence (Q15059 34-140 limits assumed): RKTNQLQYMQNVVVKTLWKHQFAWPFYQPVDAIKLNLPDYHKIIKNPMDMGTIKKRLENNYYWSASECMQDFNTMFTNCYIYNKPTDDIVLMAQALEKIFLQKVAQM
T6 sequence (Q15059 306-415 limits assumed): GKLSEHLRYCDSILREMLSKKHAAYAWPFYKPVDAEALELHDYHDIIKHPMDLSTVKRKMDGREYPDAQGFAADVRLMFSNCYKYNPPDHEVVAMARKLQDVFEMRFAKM
T5 sequence (P25440 344-453 limits assumed): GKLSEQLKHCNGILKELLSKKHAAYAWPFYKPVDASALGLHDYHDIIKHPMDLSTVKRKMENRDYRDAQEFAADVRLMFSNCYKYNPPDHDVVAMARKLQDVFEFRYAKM
T4 sequence (Q92793 1085-1192 limits assumed): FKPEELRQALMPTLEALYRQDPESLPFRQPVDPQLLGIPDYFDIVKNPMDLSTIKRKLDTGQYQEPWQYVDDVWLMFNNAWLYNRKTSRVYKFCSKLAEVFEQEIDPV

Compound	Kd [1, 13] [nM]	TΔS ([1]; 15 °C) [kcal/mol]	ΔG ([1]; 15 °C)	N (stoichiometry) ([1]; 15 °C, reverse titration)	ΔHobs ([1]; 15 °C, reverse titration)	Kd [1, 14]	LE (ligand efficiency) [1]	Kd [2] [nM]	TΔS [2] [kcal/mol]	ΔG [2]	N (stoichiometry) [2]	ΔHobs [2]	LE (ligand efficiency) [2]	TΔS ([3]; ITC, 15 °C) [kcal/mol]	ΔG ([3]; ITC, 15 °C)	N (stoichiometry) ([3]; ITC, 15 °C, reverse titration)	ΔHobs ([3]; ITC, 15 °C, reverse titration)	LE (ligand efficiency) [3]	ΔTm at 10 µM [4] [°C]	ΔTm at 10 µM [5] [°C]	also measured
COc1ccc(Br)cc1-c1nc(N)nc2[nH]cnc12 [Compound 7d, 2-Amino-6-(5-bromo-2-methoxyphenyl)-9H-purine]	4650 ± 197	0.94	–7.03 kcal/mol	0.99 ± 0.018	–6.09 ± 0.14 kcal/mol	4700 nM and 4650 nM	0.37	4440 ± 162	0.44	–7.06 kcal/mol	0.99 ± 0.011	–6.62 ± 0.09 kcal/mol	0.37	0.33	–7.50 kcal/mol	1.01 ± 0.009	–7.17 ± 0.09 kcal/mol	0.39	2.5	2.9	Kd ([3]; ITC, 50 mM HEPES pH 7.5, 150 mM NaCl, 15 °C, reverse titration, triplicate): 2040 ± 105 nM; ΔTm at 10 µM [6]: 0.9 °C; ΔTm at 10 µM [7]: 2.1 °C; ΔTm at 10 µM [8]: 0.7 °C; ΔTm at 10 µM [9]: 0.6 °C; ΔTm at 10 µM [10]: 0.0286 °C; ΔTm at 10 µM [11]: 0.237 °C; cytotoxicity toward HEK293 cells (in words) [12]: not cytotoxic
Nc1nc(-c2cc(Br)cc3c2OCC3)c2nc[nH]c2n1 [Compound 11, 2-Amino-6-(5-bromo-2,3-dihydrobenzo[b]furan-7-yl)-9H-purine]	1370 ± 29	1.34	–7.73 kcal/mol	1.09 ± 0.002	–6.39 ± 0.02 kcal/mol	1400 nM and 1370 nM	0.39	1420 ± 60	2.06	–7.71 kcal/mol	1.02 ± 0.006	–5.65 ± 0.04 kcal/mol	0.39	0.33	–7.50 kcal/mol	1.01 ± 0.009	–7.17 ± 0.09 kcal/mol	0.38	2.8	3.6	ΔTm at 10 µM [6]: 4.3 °C; ΔTm at 10 µM [7]: 3.7 °C; ΔTm at 10 µM [8]: 5.4 °C; ΔTm at 10 µM [9]: 2.8 °C; ΔTm at 10 µM [10]: 1.7 °C; ΔTm at 10 µM [11]: 0.37 °C; cytotoxicity toward HEK293 cells (in words) [12]: did not observe any cytotoxicty; also recorded: not cytotoxic; also recorded: not toxic
